A value given as a limit tells only on which side of the number the result lay.

The test system of one assay is SW480. The experiment in a line: Cytotoxicity against human SW480 cells after 48 hrs by MTT assay. Format: functional, cell-based. The note with it: SW480, 48 h. (In general: Tetrazolium dyes change colour on reduction, which living cells bring about.)
With `C/C(=C\CC[C@@H](C)[C@H]1CC[C@@]2(C)[C@@H]3CC[C@H]4C(C)(C)C(=O)CC[C@]4(C)C3=C[C@@H](O)[C@]12C)C(=O)O`, the concentration for half-maximal inhibition (IC50) is above 40 µM.

`C/C(=C\CC[C@@H](C)C(=O)CC[C@]1(C)C(=O)C=C2[C@H]1CC[C@H]1C(C)(C)C(=O)CC[C@]21C)C(=O)O` showed a 50% inhibitory concentration (IC50) above 40 µM.

Regarding `CC1=C[C@]2(O)[C@@H](CC[C@H]3C(C)(C)C(=O)CC[C@@]32C)[C@@](C)(CCC(=O)[C@H](C)CC/C=C(\C)C(=O)O)C1=O`, the half-inhibitory concentration (IC50) is above 40 µM.

The test system of the next assay is SMMC-7721. The experiment in a line: Cytotoxicity against human SMMC7721 cells after 48 hrs by MTT assay. Format: functional, cell-based. The settings on record: SMMC-7721, 48 h.
`C/C(=C\CC[C@@H](C)[C@H]1CC[C@@]2(C)[C@@H]3CC[C@H]4C(C)(C)C(=O)CC[C@]4(C)C3=C[C@@H](O)[C@]12C)C(=O)O` gave a 50% inhibitory concentration (IC50) above 40 µM.

Turning to `C/C(=C\CC[C@@H](C)C(=O)CC[C@]1(C)C(=O)C=C2[C@H]1CC[C@H]1C(C)(C)C(=O)CC[C@]21C)C(=O)O`, the concentration for half-maximal inhibition (IC50) was above 40 µM.

Take `CC1=C[C@]2(O)[C@@H](CC[C@H]3C(C)(C)C(=O)CC[C@@]32C)[C@@](C)(CCC(=O)[C@H](C)CC/C=C(\C)C(=O)O)C1=O`: the IC50 was above 40 µM.

Another assay deals with MCF7. Description: Cytotoxicity against human MCF7 cells after 48 hrs by MTT assay. It counts as functional, cell-based. The settings on record: MCF7, 48 h.
Turning to `C/C(=C\CC[C@@H](C)[C@H]1CC[C@@]2(C)[C@@H]3CC[C@H]4C(C)(C)C(=O)CC[C@]4(C)C3=C[C@@H](O)[C@]12C)C(=O)O`, the 50% inhibitory concentration (IC50) was above 40 µM.

Compound `C/C(=C\CC[C@@H](C)C(=O)CC[C@]1(C)C(=O)C=C2[C@H]1CC[C@H]1C(C)(C)C(=O)CC[C@]21C)C(=O)O` registered an IC50 above 40 µM.

`CC1=C[C@]2(O)[C@@H](CC[C@H]3C(C)(C)C(=O)CC[C@@]32C)[C@@](C)(CCC(=O)[C@H](C)CC/C=C(\C)C(=O)O)C1=O` yielded an IC50 above 40 µM.

The next assay has as its system A549. The experiment in a line: Cytotoxicity against human A549 cells after 48 hrs by MTT assay. It counts as functional, cell-based. The settings on record: A549, 48 h.
For `C/C(=C\CC[C@@H](C)[C@H]1CC[C@@]2(C)[C@@H]3CC[C@H]4C(C)(C)C(=O)CC[C@]4(C)C3=C[C@@H](O)[C@]12C)C(=O)O`, the 50% inhibitory concentration (IC50) was above 40 µM.

In the case of `C/C(=C\CC[C@@H](C)C(=O)CC[C@]1(C)C(=O)C=C2[C@H]1CC[C@H]1C(C)(C)C(=O)CC[C@]21C)C(=O)O`, the half-inhibitory concentration (IC50) was above 40 µM.

Consider `CC1=C[C@]2(O)[C@@H](CC[C@H]3C(C)(C)C(=O)CC[C@@]32C)[C@@](C)(CCC(=O)[C@H](C)CC/C=C(\C)C(=O)O)C1=O`, for which the half-inhibitory concentration (IC50) was above 40 µM.

A further assay deals with Human immunodeficiency virus 1. The experiment in a line: Antiviral activity against HIV1 3B infected in human C8166 cells assessed as inhibition of viral-induced cytopathogenicity by syncytium formation assay. The settings on record: Human immunodeficiency virus 1, 3B. Format: functional, organism-based.
For `C/C(=C\CC[C@@H](C)[C@H]1CC[C@@]2(C)[C@@H]3CC[C@H]4C(C)(C)C(=O)CC[C@]4(C)C3=C[C@@H](O)[C@]12C)C(=O)O`, the EC50 amounted to 54.8 µM.

For `C/C(=C\CC[C@@H](C)C(=O)CC[C@]1(C)C(=O)C=C2[C@H]1CC[C@H]1C(C)(C)C(=O)CC[C@]21C)C(=O)O`, the EC50 came to 30.3 µM.

Take `Cc1cn([C@H]2C[C@H](N=[N+]=[N-])[C@@H](CO)O2)c(=O)[nH]c1=O` [ZIDOVUDINE]: the 50% effective concentration (EC50) came to 0.02 µM.

The IC50 is the concentration needed to halve the response being measured. A high value points to a need for much substance. In general, EC50 refers to the concentration needed to bring the measured effect to its halfway point.

The values above are taken from ChEMBL document CHEMBL3091302, “Kadcotriones A-C: tricyclic triterpenoids from Kadsura coccinea” (J Nat Prod, 2013).
